The values below are quoted from earlier work in patent publication US10695318B2, “Methods and compositions for improving cognitive function” (MARS, Incorporated, priority 2006, dated 2020).

In this series the test system is global CBF. To be noted: inhalation of 5% C02 as vasodilative stimulus.

Turning to `O=C=O` [C02], the “global CBF increases” value is given as “approximately 87%”.
